Article PMC8794255, “Small molecule inhibitor of Igf2bp1 represses Kras and a pro-oncogenic phenotype in cancer cells” (RNA Biology, 2021)
pIC50, pKd: −log10 of the molar value. Several values for one entry are separate records, joined by “and”; a condition that tells them apart may be missing. Identical values can stand only once.

Experiments:
[1] = tested on: Igf2bp1-cMyc RNA interaction; parameters: method as in PMID 28846937; conditions: fluorescence polarization; cited from earlier work
[2] = parameters: method as in PMID 28846937; conditions: cited from earlier work
[3] = biological target: T1, Igf2bp1 (Homo sapiens, UniProt Q9NZI8); assay: Fluorescence polarization (FP) assay of Igf2bp1 binding to fluorescent Kras 6 RNA; conditions: FP dose response; read-out: IC50, inhibition of Igf2bp1 binding to Kras 6 RNA
T1 construct: Recombinant full-length Igf2bp1 protein was labelled with RED-tris-NTA dye; made in house
Method: For the small-molecule screen, compounds were obtained from the collection maintained at the Grand Israel National Center for Personalized Medicine, consisting of molecules purchased from commercial vendors. Labelled RNA (10 nM) was incubated with recombinant Igf2bp1 protein (400 nM) in FAM-RNA buffer (10 mM Tris pH 8.0, 75 mM KCl, 0.5 mM EDTA, 1 mM DTT, 0.0188 U/μL RNAsin, 0.0005 μg/mL heparin, 0.0001 μg/μL tRNA, 0.01% Triton X-100, 3 mM MgCl2, 0.05% IGEPAL) at room temperature for 15 min. 7 μL of this reaction mix was aliquoted with GNF WDII (USA) into wells of 1536 well plates, with a final concentration of 20 μM compound or DMSO. The plates were spun down and read in a BMG Pherastar FS (Germany) plate reader, in FP mode with a 485/520/520 polarization filter, calibrated to 35 mP for free fluorescein with similar total intensity as experimental samples. […]
To determine the quality of our screening assay, the Z’ factor for each plate was calculated with a Z’ factor greater than 0.5 indicating a robust assay suitable for high throughput screening. Compounds that altered the overall fluorescence intensity compared to controls were considered auto florescence and excluded from further analysis. […] Any small molecule that causes a change of more than three standard deviations from the mean is determined appropriate for further investigation.

[4] = biological target: T1, Igf2bp1; assay: Microscale thermophoresis (MST), full-length Igf2bp1; conditions: full-length protein, read-out: KD of compound binding to Igf2bp1
Method: Recombinant full-length Igf2bp1 protein was labelled with RED-tris-NTA dye using a Monolith NT His-Tag Labelling Kit (NanoTemper) while RRM12, KH12 and KH34 di-domain peptides were labelled using the Protein Labelling Kit RED NHS 2nd generation (NanoTemper). Labelled proteins were spun at 15,000 g for 5 min to eliminate aggregates. All samples were 2X labelled protein mix of Igf2bp1 (200 nM) in PBST and were combined (1:1) with serial dilutions of compound or Kras6 RNA in binding buffer (10mMTris pH = 7.5, 100 mM NaCl, 0.1 mM EDTA, 0.06% IPEGAL, 0.02 μg/μL tRNA, 2 mM DTT, 0.1 μg/μL heparin) in final volume of 20 μL, room temperature for 15 min. Samples were then loaded into standard capillaries (NanoTemper) and read in the Monolith NT.115 scanner (NanoTemper) using the red filter with reading conditions of 95% LED power and 40% MST power, 5 sec fluorescence before, 30 sec MST on, 5 sec fluorescence after and 25 sec delay between samples. Results were analysed using the MO Control software (NanoTemper) for curve fitting to KD.

[5] = biological target: T1, Igf2bp1; assay: EMSA, Igf2bp1 with fluorescent Kras 6 RNA; format: binding; conditions: compound pre-incubated with protein; 7773 at 200 μM
Method: Recombinant Igf2bp1 protein was serially diluted (1:1) starting at an initial concentration of 10,000 nM in 0.75 μg heparin, in a total volume of 13 μL. […] 2 μL RNA was added to each well protein sample, and after a 30 min incubation at room temperature in the dark, loading dye (3 μL) (30% glycerol, 0.01% bromocresol green) was added to each mixture. For compound inhibition experiments, compounds or DMSO were incubated for 4 hours at 37 °C with the protein prior to adding the RNA. Samples were electrophoresed on native TBE polyacrylamide gels (6% acrylamide/bis-acrylamide 37.5:1, 0.5X TBE) that had been pre-run for 30 min. Gels were run at 120 V in 0.5X TBE, at 4°C in the dark. They were then carefully washed and scanned using a Typhoon FLA9500 imager using Alexa 488 laser and LPB1/2 filter. Igf2bp1-RNA complex formation was quantified using the ImageJ software. Prism6 software was used for curve fitting and KD calculations.

T1 sequence (Q9NZI8 whole entry): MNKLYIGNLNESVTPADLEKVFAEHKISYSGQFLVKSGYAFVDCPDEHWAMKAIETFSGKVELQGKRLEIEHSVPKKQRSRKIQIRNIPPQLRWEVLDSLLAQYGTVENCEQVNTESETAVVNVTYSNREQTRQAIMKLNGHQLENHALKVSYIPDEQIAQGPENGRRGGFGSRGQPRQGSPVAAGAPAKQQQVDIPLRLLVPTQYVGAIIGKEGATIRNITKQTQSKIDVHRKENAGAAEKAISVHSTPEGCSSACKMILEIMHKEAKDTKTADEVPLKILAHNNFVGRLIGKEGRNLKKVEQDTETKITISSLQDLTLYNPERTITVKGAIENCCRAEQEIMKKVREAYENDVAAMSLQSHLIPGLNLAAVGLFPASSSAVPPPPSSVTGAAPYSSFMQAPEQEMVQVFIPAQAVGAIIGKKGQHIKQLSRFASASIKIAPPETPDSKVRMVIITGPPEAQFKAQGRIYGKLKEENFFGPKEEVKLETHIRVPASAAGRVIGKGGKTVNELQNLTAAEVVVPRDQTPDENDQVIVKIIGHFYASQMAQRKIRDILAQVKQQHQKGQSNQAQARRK

SMILES | Inhibition of Igf2bp1-cMyc RNA interaction in vitro [1] | Effect on cell proliferation [2] | pIC50 [3] | pKd [4] | Inhibition of Igf2bp1 binding to Kras 6 RNA (gel shift) [5]
NC(=O)c1ccccc1N=Cc1ccc(Br)s1 [BTYNB] | inhibited Igf2bp1-cMyc RNA interaction in vitro | appears to inhibit cell proliferation |  |  | 
O=C(c1cccc(-n2cnnn2)c1)N1CCCC(Nc2ccc3c(c2)OCO3)C1 (centres unmarked) [compound 393] |  |  | ~4.05 | < 4.00 and ~3.92 | lower, but observable, inhibition of RNA binding
